Data set [1] in a line: Plasma leuprolide pharmacokinetics after IV, SQ and intranasal (IN) administration, five-way crossover volunteer trial, ELISA. The conditions noted are these: human, in vivo; for bioavailability / AUC / Cmax: female. More on the design: Absolute bioavailability, % of IV: dose or concentration left out as unconfirmed. From the text:
In the following example, the inventors sought to compare the intranasal (“IN”) administration of leuprolide using the methods and compositions of the invention with prior art methods of administration (subcutaneous (“SQ”) and intravenous (“IV”)).
For orientation: ELISA stands for enzyme-linked immunosorbent assay.

For data set [2] the following is noted: human, in vivo.
Procedure: The design of the experiment was a five-way, crossover, randomized, partially double-blind, volunteer trial. Women were given leuprolide 1 mg IV and SQ, and IN as novel formulation at 1 mg (one spray), 2 mg (one spray) and 6 mg (three sprays), in random order. There was one dosing regimen on each of five separate days, with each day separated by at least two washout days. Blood for leuprolide measurement was collected via indwelling catheter at baseline and on eighteen occasions, up to twenty four hours after dosing. Plasma was separated and the leuprolide concentrations determined by enzyme linked immunosorbant assays (ELISA). Throughout the study subjects were monitored for adverse events and given nasal examinations.

As usually defined, the bioavailability is dose-corrected exposure relative to a reference, in per cent. The AUC is concentration integrated over time. Usually Cmax stands for the highest concentration seen after dosing. As for `CC(=O)O.CCNC(=O)[C@@H]1CCCN1C(=O)[C@H](CCCNC(=N)N)NC(=O)[C@H](CC(C)C)NC(=O)[C@@H](CC(C)C)NC(=O)[C@H](Cc1ccc(O)cc1)NC(=O)[C@H](CO)NC(=O)[C@H](Cc1c[nH]c2ccccc12)NC(=O)[C@H](Cc1c[nH]cn1)NC(=O)[C@@H]1CCC(=O)N1` [leuprolide, 5-oxo-L-prolyl-L-histidyl-L-tryptophyl-L-seryl-L-tyrosyl-D-leucyl-L-leucyl-L-arginyl-N-ethyl-L-prolinamide acetate salt], the bioavailability in data set [1] came out at 95 ± 17%; in data set [1] (inhaled or intranasal, 1 mg), 13 ± 7%; in data set [1] (inhaled or intranasal, 2 mg), 14 ± 7%. The exposure (AUC) in data set [1] (inhaled or intranasal, 1 mg) was 15 ± 8 ng·h/mL; in data set [1] (inhaled or intranasal, 2 mg) it was 31 ± 16 ng·h/mL; in data set [1] (inhaled or intranasal, 6 mg), 56 ± 28 ng·h/mL; in data set [1] (iv, 1 mg), 120 ± 25 ng·h/mL; in data set [1] (sc, 1 mg) it was 111 ± 21 ng·h/mL. In addition, the Cmax in data set [1] (inhaled or intranasal, 1 mg) came out at 5 ± 3 ng/mL; in data set [1] (inhaled or intranasal, 2 mg) it was 11 ± 6 ng/mL; in data set [1] (inhaled or intranasal, 6 mg) it was 22 ± 11 ng/mL; in data set [1] (iv, 1 mg) it was 85 ± 33 ng/mL; in data set [1] (sc, 1 mg), 35 ± 8 ng/mL. Moreover, the entries for the “Absolute bioavailability, % of IV” value in data set [1] and in data set [1] (iv) were 8 ± 3 % of IV and 100 % of IV, respectively. Also, in data set [2], the Adverse events noted entry was “rhinorrhea and altered taste sensation”. For the same compound, the Serious adverse events entry in data set [2] was “No serious adverse events were reported”.
